Source: BindingDB's records for doi:10.1021/jm049073+ (University of Innsbruck, 2005)

target: Sigma non-opioid intracellular receptor 1 (Cavia porcellus); assay: Affinity for sigma receptor type 1 of guinea pig using [3H]ifenprodil or (+)-[3H]pentazocine radioligand

Compound	Ki [nM]
CCCCCCCOc1ccccc1NC(=O)OC(C)CN(CC)CC (stereo not drawn) [(2-Heptyloxy-phenyl)-carbamic acid 2-diethylamino-1-methyl-ethyl ester]	230
C[C@H]1CCC2[C@@H](C)[C@H]3[C@H](C[C@H]4[C@@H]5CC=C6C[C@@H](O)CC[C@]6(C)[C@H]5CC[C@]34C)N2C1 (stereo partly drawn) [4a,6a,7,10-tetramethyl-(2S,4aR,4bS,6aS,6bR,7S,10S,12aS,13aS,13bR)-2,3,4,4a,4b,5,6,6a,6b,7,7a,8,9,10,11,12a,13,13a,13b,14-icosahydro-1H-naphtho[2',1':4,5]indeno[1,2-b]indolizin-2-ol]	74
CC1=C2C[C@H]3[C@@H](CC=C4C[C@@H](O)CC[C@@]43C)[C@@H]2CC[C@]12O[C@]1(C)C[C@H](C)CN[C@H]1[C@H]2C [2',3,6,7a,15'-Pentamethyl-(1'S,2'R,2'R,3R,3aS,5'S,6S,7aR,10'S,11'S)-spiro[perhydrofuro[3,2-b]pyridine-2,14'-tetracyclo[8.7.0.02,7.011,16]heptadeca-7',15'-diene]-5'-ol]	> 100000
NC(=Nc1nc(-c2cc3ccccc3[nH]2)cs1)NCc1ccccc1 [N-Benzyl-N'-[4-(1H-indol-2-yl)-thiazol-2-yl]-guanidine]	26700
CC[C@H]1CC2C[C@H]3C4Nc5ccc(OC)cc5C4CCN(C2)C13 (stereo partly drawn) [17-ethyl-3,13-diazapentacyclo[13.3.1.02,10.04,9.013,18]nonadeca-4,6,8-trien-7-yl methyl ether]	8550
O=C(O)c1ccc(CCN2CCN(C/C=C/c3ccc(Cl)cc3)CC2)cc1	680

The next molecules have a lower Ki than those just listed; values first:

Ki [nM]	Compound
1.3	CN(c1nc2ccccc2s1)C1CCN(CCCCOc2ccccc2)C1 (stereo not drawn) [Benzothiazol-2-yl-methyl-[1-(4-phenoxy-butyl)-pyrrolidin-3-yl]-amine]
1	CCCCCCCCCCCCC(C#N)(CCCN(C)CCc1ccccc1)c1ccccc1 (stereo not drawn) [2-[3-(Methyl-phenethyl-amino)-propyl]-2-phenyl-tetradecanenitrile]
